In US9181258B2, “Substituted 3,4-dihydropyrrolo[1,2-a]pyrazin-1(2H)-ones as protein kinase inhibitors” (NERVIANO MEDICAL SCIENCES S.R.L., priority 2011, dated 2015):
pIC50: −log10 of the molar value. Where a name gives a salt, the structure may show the parent alone.

Legend:
[1] = molecular target: human PIM1 (Homo sapiens (Human), UniProt P11309); experiment: Biochemical assay for inhibitors of PIM1 kinase activity (trans-phosphorylation, Dowex technique); details: ATP 200 μM, Aktide 25 μM, enzyme 1 nM; read-out: PIM-1 IC50
Procedure: Biochemical Assay for Inhibitors of PIM1 Kinase Activity
The inhibitory activity of putative kinase inhibitors and the potency of selected compounds were determined using a trans-phosphorylation assay.
Specific peptide or protein substrates were trans-phosphorylated by their specific ser-thr or tyr kinase in the presence of ATP traced with ^33P-γ-ATP, and in the presence of their own optimal buffer and cofactors.
At the end of the phosphorylation reaction, more than 98% unlabeled ATP and radioactive ATP were captured by an excess of the ion exchange dowex resin; the resin then settled down to the bottom of the reaction plate by gravity. Supernatant was subsequently withdrawn and transferred into a counting plate, then evaluated by β-counting.
Reagents/Assay Conditions i. Dowex Resin Preparation
500 g of wet resin (SIGMA, custom prepared resin DOWEX 1×8 200-400 mesh, 2.5 Kg) were weighed out and diluted to 2 L in 150 mM sodium formate, pH 3.00.
The resin was allowed to settle down (some hours) and then the supernatant was discarded.
After three washes as above over a couple of days, the resin was allowed to settle and two volumes (wrt the resin volume) of 150 mM sodium formate buffer were added.
The pH was then measured and should have been around 3.00.
The washed resin was stable for more than one week; the stock resin was kept at 4° C. before use.
The buffer for PIM1 assay was composed of HEPES 50 mM, at pH 7.5, with 10 mM MgCl2, 1 mM DTT, 3 μM NaVO3, and 0.2 mg/mL BSA.
Full-length human PIM1 was expressed and purified as described in Bullock A N, et al., J. Biol. Chem. 2005, 280, 41675-82.
1.7 μM PIM1 was incubated 1 h at 28° C. in the presence of 125 μM ATP.
ATP concentration: 200 μM; ^33P-γ-ATP: 6 nM; Enzyme concentration: 1 nM Substrate concentration Aktide (Chemical Abstract Service Registry Number 324029-01-8): 25 μM iv. Robotized Dowex Assay
The test mix consisted of:
1) 3× Enzyme mix (done in Kinase Buffer 3×), 5 μL/well
2) 3× substrate and ATP mix (done in ddH2O), together with ^33P-γ-ATP, 5 μL/well 3) 3× test compounds (diluted into ddH2O—3% DMSO)—5 μL/well See below for compound dilution and assay scheme […]
An automated station (Biomek FX, Beckman) was used for serial dilutions, producing 1:3 dilutions in 100% DMSO, from line A1 to A10, for all the compounds in the column.
Data were analyzed by an internally customized version of the “Assay Explorer” SW package, which provided sigmoidal fitting of the ten-dilution curves for IC50 determination in secondary assay/hit confirmation routines.

[2] = molecular target: human PIM2 (Homo sapiens (Human), UniProt Q9P1W9); experiment: PIM2 kinase inhibition assay: Dowex technique; format: biochemical; details: ATP 4 μM, Aktide 5 μM, enzyme 1.5 nM; read-out: PIM-2 IC50
Procedure: Method for PIM2 Kinase Inhibition Assay: Dowex Technique
The buffer for PIM2 assay was composed of HEPES 50 mM, at pH 7.5, with 1 mM MgCl2, 1 mM DTT, 3 μM Na3VO4, and 0.2 mg/mL BSA.
Full-length human PIM2 was expressed and purified as described in Fedorov O, et al., PNAS 2007 104, 51, 20523-28. ii. Assay Conditions (Final Concentrations)
Enzyme concentration=1.5 nM; ATP=4 μM; ^33P-γ-ATP=1 nM
Aktide substrate (Chemical Abstract Service Registry Number 324029-01-8)=5 μM iii. Robotized Dowex Assay
See above: same procedure as described for PIM1.

[3] = tested on: BaF3-PIM1 cells; experiment: In vitro cell proliferation assay (CellTiter-Glo), BaF3-PIM1; format: cell-based; details: 72 hours
Procedure: (§1) In Vitro Cell Proliferation Assay
(§2) BaF3-PIM1 and MV-4-11 cells were seeded at 125 cells/well and 1250 cells/well respectively in a 384-well white plates in complete medium and treated with compounds dissolved in 0.1% DMSO, 24 h after seeding.
(§3) The cells were incubated at 37° C. and 5% CO2 and after 72 hours the plates were processed using CellTiter-Glo assay (Promega) following the manufacturer's instruction.
(§4) CellTiter-Glo was a homogenous method based on the quantification of the ATP present, an indicator of metabolitically active cells. ATP was quantified using a system based on luciferase and D-luciferin resulting into light generation. The luminescent signal was proportional to the number of cells present in culture.
(§5) Briefly 25 μl/well reagent solution were added to each wells and after 5 minutes shacking microplates were red by Envision (PerkinElmer) luminometer. The luminescent signal was proportional to the number of cells present in culture.
(§6) Inhibitory activity was evaluated comparing treated versus control data using Assay Explorer (MDL) program. IC50 was calculated using sigmoidal interpolation curve.

[4] = tested on: MV-4-11 cells; experiment: In vitro cell proliferation assay (CellTiter-Glo), MV-4-11; format: cell-based; details: Homo sapiens, MV4-11, 72 hours
Procedure: as §1
MV-4-11 (biphenotypic B myelomonocytic leukemia) cell line was obtained from ATCC.
Media for MV-4-11 cell line contained RPMI 1640 or EMEM plus 2 mM Glutamine and 10% Fetal bovine serum.
as §2, §3, §4, §5, §6

Chain of human PIM2 (Q9P1W9 whole entry): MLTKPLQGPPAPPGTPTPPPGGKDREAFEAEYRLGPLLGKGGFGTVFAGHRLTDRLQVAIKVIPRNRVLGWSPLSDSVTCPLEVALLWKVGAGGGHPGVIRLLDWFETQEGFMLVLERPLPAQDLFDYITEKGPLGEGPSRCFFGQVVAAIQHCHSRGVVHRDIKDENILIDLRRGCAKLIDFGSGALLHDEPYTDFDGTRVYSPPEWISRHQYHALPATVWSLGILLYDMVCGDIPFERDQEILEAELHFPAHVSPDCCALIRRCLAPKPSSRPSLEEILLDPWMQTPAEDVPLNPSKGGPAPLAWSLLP
Chain of human PIM1 (P11309 whole entry): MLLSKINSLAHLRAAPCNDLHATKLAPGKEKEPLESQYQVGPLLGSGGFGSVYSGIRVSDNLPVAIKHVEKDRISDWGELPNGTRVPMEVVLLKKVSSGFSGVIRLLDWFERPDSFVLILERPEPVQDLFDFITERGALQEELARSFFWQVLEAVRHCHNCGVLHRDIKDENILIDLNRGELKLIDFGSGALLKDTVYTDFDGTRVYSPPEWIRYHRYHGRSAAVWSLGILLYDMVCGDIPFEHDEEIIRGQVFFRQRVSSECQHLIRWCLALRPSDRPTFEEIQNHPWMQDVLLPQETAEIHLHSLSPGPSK

pIC50 [1] | pIC50 [2] | pIC50 [3] | pIC50 [4] | SMILES
8.70 | 8.15 | 6.39 | 6.17 | NCC[C@H]1CNC(=O)c2cc(-c3cccc(OC(F)(F)F)c3)c(-c3ccc(CN4CCOCC4)cc3)n21 [Compound 99, (4S)-4-(2-aminoethyl)-6-[4-(morpholin-4-ylmethyl)phenyl]-7-[3-(trifluoromethoxy)phenyl]-3,4-dihydropyrrolo[1,2-a]pyrazin-1(2H)-one hydrochloride]
8.52 | 7.92 | 7.07 | 6.18 | NCC[C@H]1CNC(=O)c2cc(-c3cccc(OC(F)(F)F)c3)c(-c3cccc(F)c3)n21 [Compound 121, (4S)-4-(2-aminoethyl)-6-(3-fluorophenyl)-7-[3-(trifluoromethoxy)phenyl]-3,4-dihydropyrrolo[1,2-a]pyrazin-1(2H)-one hydrochloride]
9.00 | 7.46 | 6.31 | 5.22 | CN1CCN(Cc2ccc(-c3c(-c4cccc(OC(F)(F)F)c4)cc4n3C(CCO)CNC4=O)cc2)CC1 (centres unmarked) [Compound 82, 4-(2-hydroxyethyl)-6-{4-[(4-methylpiperazin-1-yl)methyl]phenyl}-7-[3-(trifluoromethoxy)phenyl]-3,4-dihydropyrrolo[1,2-a]pyrazin-1(2H)-one trifluoroacetate]
7.57 | 6.82 | 6.51 | 6.12 | NCC[C@H]1CNC(=O)c2cc(-c3cccc(OC(F)(F)F)c3)c(-c3ccc4ccccc4c3)n21 [Compound 118, (4S)-4-(2-aminoethyl)-6-(naphthalen-2-yl)-7-[3-(trifluoromethoxy)phenyl]-3,4-dihydropyrrolo[1,2-a]pyrazin-1(2H)-one hydrochloride]
7.66 | 6.89 | 5.41 | 5.50 | CC(=O)c1ccc(-c2c(-c3cccc(OC(F)(F)F)c3)cc3n2[C@@H](CCCN)CNC3=O)cc1 [Compound 110, (4S)-6-(4-acetylphenyl)-4-(3-aminopropyl)-7-[3-(trifluoromethoxy)phenyl]-3,4-dihydropyrrolo[1,2-a]pyrazin-1(2H)-one hydrochloride]
7.80 | 7.49 | 6.62 | 5.58 | NCCC1CNC(=O)c2cc(-c3cc(Cl)ccc3F)c(-c3ccccc3)n21 (centres unmarked) [Compound 57, 4-(2-aminoethyl)-7-(5-chloro-2-fluorophenyl)-6-phenyl-3,4-dihydropyrrolo[1,2-a]pyrazin-1(2H)-one hydrochloride]
7.72 | 6.81 | 6.08 | 5.79 | NCCC[C@H]1CNC(=O)c2cc(-c3cccc(OC(F)(F)F)c3)c(-c3ccccc3)n21 [Compound 102, (4S)-4-(3-aminopropyl)-6-phenyl-7-[3-(trifluoromethoxy)phenyl]-3,4-dihydropyrrolo[1,2-a]pyrazin-1(2H)-one hydrochloride]
9.00 | 8.52 | 5.87 | 5.27 | NCC[C@H]1CNC(=O)c2cc(-c3cccc(OC(F)(F)F)c3)c(-c3ccc(S(N)(=O)=O)cc3)n21 [Compound 120, 4-{(4S)-4-(2-aminoethyl)-1-oxo-7-[3-(trifluoromethoxy)phenyl]-1,2,3,4-tetrahydropyrrolo[1,2-a]pyrazin-6-yl}benzenesulfonamide hydrochloride]
7.40 | 6.94 | 6.49 | 5.34 | Cc1cccc(-c2c(-c3cc(Cl)ccc3F)cc3n2C(CCN)CNC3=O)c1 (centres unmarked) [Compound 59, 4-(2-aminoethyl)-7-(5-chloro-2-fluorophenyl)-6-(3-methylphenyl)-3,4-dihydropyrrolo[1,2-a]pyrazin-1(2H)-one hydrochloride]
7.80 | 7.35 | 7.05 | 6.14 | CSc1ccc(-c2c(-c3cccc(OC(F)(F)F)c3)cc3n2[C@@H](CCN)CNC3=O)cc1 [Compound 123, (4S)-4-(2-aminoethyl)-6-[4-(methylsulfanyl)phenyl]-7-[3-(trifluoromethoxy)phenyl]-3,4-dihydropyrrolo[1,2-a]pyrazin-1(2H)-one hydrochloride]
9.00 | 8.70 | 5.51 | 6.21 | CN1CCN(Cc2ccc(-c3c(-c4cccc(OC(F)(F)F)c4)cc4n3[C@@H](CCN)CNC4=O)cc2)CC1 [Compound 100, (4S)-4-(2-aminoethyl)-6-{4-[(4-methylpiperazin-1-yl)methyl]phenyl}-7-[3-(trifluoromethoxy)phenyl]-3,4-dihydropyrrolo[1,2-a]pyrazin-1(2H)-one hydrochloride]
7.47 | 6.76 | 6.31 | 5.31 | CC(=O)NCC[C@H]1CNC(=O)c2cc(-c3cccc(OC(F)(F)F)c3)c(-c3ccccc3)n21 [Compound 142, N-(2-{(4S)-1-oxo-6-phenyl-7-[3-(trifluoromethoxy)phenyl]-1,2,3,4-tetrahydropyrrolo[1,2-a]pyrazin-4-yl}ethyl)acetamide]
7.64 | 7.29 | 6.49 | 5.59 | Cc1cccc(-c2c(-c3cccc(OC(F)(F)F)c3)cc3n2C(CCN)CNC3=O)c1 (centres unmarked) [Compound 31, 4-(2-aminoethyl)-6-(3-methylphenyl)-7-[3-(trifluoromethoxy)phenyl]-3,4-dihydropyrrolo[1,2-a]pyrazin-1(2H)-one hydrochloride]
7.62 | 6.80 | 6.89 | 6.33 | CC(C)(C)c1ccc(-c2c(-c3cccc(OC(F)(F)F)c3)cc3n2[C@@H](CCN)CNC3=O)cc1 [Compound 124, (4S)-4-(2-aminoethyl)-6-(4-tert-butylphenyl)-7-[3-(trifluoromethoxy)phenyl]-3,4-dihydropyrrolo[1,2-a]pyrazin-1(2H)-one hydrochloride]
7.77 | 7.07 | 6.78 | 6.11 | Cc1cc(-c2c(-c3cccc(OC(F)(F)F)c3)cc3n2[C@@H](CCN)CNC3=O)ccc1F [Compound 122, (4S)-4-(2-aminoethyl)-6-(4-fluoro-3-methylphenyl)-7-[3-(trifluoromethoxy)phenyl]-3,4-dihydropyrrolo[1,2-a]pyrazin-1(2H)-one hydrochloride]

SMILES | pIC50 [1] | pIC50 [2] | pIC50 [3] | pIC50 [4]
NCCC1CNC(=O)c2cc(-c3cccc(OC(F)(F)F)c3)c(-c3ccccc3)n21 (centres unmarked) [Compound 28, 4-(2-aminoethyl)-6-phenyl-7-[3-(trifluoromethoxy)phenyl]-3,4-dihydropyrrolo[1,2-a]pyrazin-1(2H)-one hydrochloride] | 8.15 | 7.26 | 6.56 | 5.76
NCC[C@H]1CNC(=O)c2cc(-c3cccc(OC(F)(F)F)c3)c(-c3ccccc3)n21 [Compound 87, (4S)-4-(2-aminoethyl)-6-phenyl-7-[3-(trifluoromethoxy)phenyl]-3,4-dihydropyrrolo[1,2-a]pyrazin-1(2H)-one] | 8.05 | 7.42 | 6.69 | 5.44
